In ChEMBL document CHEMBL1135565, “Synthesis of base-modified dihydropacidamycins” (2002):

Tests used:
Assay type in all cases: functional
Escherichia coli = experiment: Minimum inhibitory concentration against Escherichia coli
Pasteurella multocida = experiment: Minimum inhibitory concentration against Pasteurella multocida
Pseudomonas aeruginosa = experiment: Minimum inhibitory concentration against Pseudomonas aeruginosa
Staphylococcus aureus = experiment: Minimum inhibitory concentration against Staphylococcus aureus

| SMILES | MIC (Escherichia coli) [µg/mL] | MIC (Pasteurella multocida) [µg/mL] | MIC (Pseudomonas aeruginosa) [µg/mL] | MIC (Staphylococcus aureus) [µg/mL] |
| --- | --- | --- | --- | --- |
| C[C@H](NC(=O)N[C@@H](Cc1c[nH]c2ccccc12)C(=O)O)C(=O)N[C@H](C(=O)NC[C@H]1C[C@@H](O)[C@H](n2cc(Cl)c(=O)[nH]c2=O)O1)[C@H](C)N(C)C(=O)[C@@H](C)N | > 512 | > 512 | > 512 | > 512 |
| C[C@H](NC(=O)N[C@@H](Cc1c[nH]c2ccccc12)C(=O)O)C(=O)N[C@H](C(=O)NC[C@H]1C[C@@H](O)[C@H](n2ccc(=O)n(C)c2=O)O1)[C@H](C)N(C)C(=O)[C@@H](C)N | > 512 | > 512 | > 512 | > 512 |
| COc1cccn([C@@H]2O[C@@H](CNC(=O)[C@@H](NC(=O)[C@H](C)NC(=O)N[C@@H](Cc3c[nH]c4ccccc34)C(=O)O)[C@H](C)N(C)C(=O)[C@@H](C)N)C[C@H]2O)c1=O | > 512 | > 512 | > 512 | > 512 |

Other lines, results leading:

| MIC (Escherichia coli) [µg/mL] | MIC (Pasteurella multocida) [µg/mL] | MIC (Pseudomonas aeruginosa) [µg/mL] | MIC (Staphylococcus aureus) [µg/mL] | SMILES |
| --- | --- | --- | --- | --- |
| > 512 | > 512 | > 512 | > 512 | Cc1cc(=O)[nH]c(=O)n1[C@@H]1O[C@@H](CNC(=O)[C@@H](NC(=O)[C@H](C)NC(=O)N[C@@H](Cc2c[nH]c3ccccc23)C(=O)O)[C@H](C)N(C)C(=O)[C@@H](C)N)C[C@H]1O |
| > 512 | > 512 | > 512 | > 512 | C[C@H](NC(=O)N[C@@H](Cc1c[nH]c2ccccc12)C(=O)O)C(=O)N[C@H](C(=O)NC[C@H]1C[C@@H](O)[C@H](n2cc(F)c(=O)[nH]c2=O)O1)[C@H](C)N(C)C(=O)[C@@H](C)N |
| > 512 | > 512 | > 512 | > 512 | Cc1cn([C@@H]2O[C@@H](CNC(=O)[C@@H](NC(=O)[C@H](C)NC(=O)N[C@@H](Cc3c[nH]c4ccccc34)C(=O)O)[C@H](C)N(C)C(=O)[C@@H](C)N)C[C@H]2O)c(=O)[nH]c1=O |
| > 512 | > 512 | > 512 | > 512 | Cc1c(C)n([C@@H]2O[C@@H](CNC(=O)[C@@H](NC(=O)[C@H](C)NC(=O)N[C@@H](Cc3c[nH]c4ccccc34)C(=O)O)[C@H](C)N(C)C(=O)[C@@H](C)N)C[C@H]2O)c(=O)[nH]c1=O |
